Consider eight compounds from paper PMC7719384 (Clinical and Translational Science, 2020).

Data set [1] addresses T1, BCRP (Homo sapiens, UniProt Q9UNQ0).
T1 sequence (Q9UNQ0 1-655): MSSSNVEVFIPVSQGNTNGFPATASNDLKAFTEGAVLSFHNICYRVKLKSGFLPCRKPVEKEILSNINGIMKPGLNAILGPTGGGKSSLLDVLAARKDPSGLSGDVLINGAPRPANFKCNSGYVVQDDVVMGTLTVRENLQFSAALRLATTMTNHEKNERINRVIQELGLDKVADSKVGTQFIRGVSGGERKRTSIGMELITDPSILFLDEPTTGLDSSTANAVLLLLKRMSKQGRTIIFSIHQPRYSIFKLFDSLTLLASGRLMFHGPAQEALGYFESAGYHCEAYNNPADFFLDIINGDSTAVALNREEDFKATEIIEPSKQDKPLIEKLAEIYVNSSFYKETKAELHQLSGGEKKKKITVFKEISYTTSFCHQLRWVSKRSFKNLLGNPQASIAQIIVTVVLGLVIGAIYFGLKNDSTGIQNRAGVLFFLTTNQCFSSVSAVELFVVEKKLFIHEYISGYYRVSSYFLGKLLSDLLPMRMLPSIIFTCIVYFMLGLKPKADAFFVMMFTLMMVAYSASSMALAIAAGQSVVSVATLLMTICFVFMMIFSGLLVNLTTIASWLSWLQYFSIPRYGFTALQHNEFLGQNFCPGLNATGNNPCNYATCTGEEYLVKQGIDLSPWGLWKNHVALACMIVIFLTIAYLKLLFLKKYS
The format is biochemical.

Data set [2] is classed as in vivo, human. To be noted: rosuvastatin 10 mg; for AUC(0-inf) / half-life: plasma; for AUC(0-inf): AUC0–∞; for half-life: t ½.
A short description of data set [3]: Pharmacokinetics of allopurinol and febuxostat in healthy volunteers. It is filed as in vivo, human. To be noted: for variation of AUC0–24 between individual participants / variation of Cmax between individual participants: 300 mg allopurinol or 120 mg febuxostat once daily.
For data set [4], the system named is BCRP. As to conditions: in vitro; cited from earlier work.
For data set [5] the following is noted: cited from earlier work.
A further data set deals with OATP1B1. As to conditions: in vitro; cited from earlier work.
The next data set has as its system OATP1B3. As to conditions: in vitro; cited from earlier work.
The next data set concerns OATP2B1. As to conditions: in vitro; cited from earlier work.
The subject of data set [6] is breast cancer resistance protein (BCRP; encoded by ABCG2). To be noted: in vitro; cited from earlier work.
For data set [7] the following is noted: mice; cited from earlier work.
The subject of another data set is CYP2C8. As to conditions: in vitro; cited from earlier work.
The next data set deals with CYP2D6. To be noted: in vitro; cited from earlier work.
For another data set, the system named is CYP1A2. To be noted: in vitro; cited from earlier work.
Another data set deals with CYP2C9. To be noted: in vitro; cited from earlier work.
The subject of another data set is CYP2C19. As to conditions: in vitro; cited from earlier work.
A further data set concerns CYP3A4. To be noted: in vitro; cited from earlier work.
For data set [8] the following is noted: in vivo in humans; cited from earlier work.
The conditions of data set [9]: in vivo in humans; cited from earlier work. This is another data set of the same source.
For data set [10] the following is noted: patients with established cardiovascular disease; cited from earlier work.
For data set [11] the following is noted: cited from earlier work. The source holds these as a separate data set.
The conditions of data set [12]: in vivo in humans; cited from earlier work. The source holds these as a separate data set.
The mark [13] stands for this setting: 120 mg febuxostat once daily vs placebo.
Where [14] appears, read: human, oral, allopurinol phase (300 mg once daily days 1–7), geometric mean (geometric CV).
Setting [15] is: human, oral, febuxostat phase (120 mg once daily days 4–7), geometric mean (geometric CV).

Structures are written as SMILES. Where two headings read alike, the source gives them in different places.

For the compound `Oc1ncnc2[nH]ncc12` [allopurinol], at BCRP [1], the IC50 (commonly the concentration at which inhibition is half-maximal) is above 200000 nM. Besides, the “effect on the pharmacokinetics of rosuvastatin” value in [2] (300 mg allopurinol once daily for 7 days vs placebo) is “no statistically significant effect”. Also, in data set [3], the “variation of AUC0–24 between individual participants” value was found to be 4.7 fold and the “variation of Cmax between individual participants” value was determined as 1.8 fold. In data set [3] (human, plasma, oral, 300 mg), the AUC(0-t) (commonly exposure summed from dosing to a finite time, without extrapolation to infinity) is 5700 ng·h/mL and the Cmax (in general, the maximum level reached in the sampled fluid or tissue) is 2000 ng/mL. In addition, in the data set with BCRP [4], the “inhibition of BCRP” value is listed as “have not inhibited”.
In the case of `CC1=NN(c2ccc(C)c(C)c2)C(=O)/C1=N\Nc1cccc(-c2cccc(C(=O)O)c2)c1O` [eltrombopag], in data set [5], the “increase of rosuvastatin AUC” value is reported as 1.6 fold. In addition, in the data set with OATP1B1, the “inhibition of OATP1B1” value was “inhibits”. For the same compound, the “inhibition of OATP1B3” value in the data set on OATP1B3 is recorded as “inhibits”. Moreover, the “inhibition of OATP2B1” value in the data set on OATP2B1 is given as “inhibits”.
For the compound `Cc1nc(-c2ccc(OCC(C)C)c(C#N)c2)sc1C(=O)O` [febuxostat], 350 nM corresponded to half-maximal inhibition on BCRP [1] (IC50). In addition, in data set [2] (setting [13]), the “effect on Clrenal of rosuvastatin” value is on record as “remained unaffected” and the “effect on t ½ of rosuvastatin” value was “remained unaffected”. In addition, in data set [3], the “variation of AUC0–24 between individual participants” value worked out at 3.0 fold and the “variation of Cmax between individual participants” value was found to be 5.0 fold. In addition, in data set [3] (compared with the noncarriers and one heterozygote, data not shown, preliminary finding), the “increase of AUC0–24 in individuals homozygous for SLCO1B1 c.521T>C” value turned out to be 1.8 fold. Moreover, in [3] (human, plasma, oral, 120 mg), the AUC(0-t) was determined as 12300 ng·h/mL; the concentration peaked (Cmax) at 4300 ng/mL; the half-life – broadly, the time in which the quantity being followed falls by half – is 6 h. Moreover, in [6], the “inhibition of BCRP mediated transport of urate” value was “strongly inhibit”. Moreover, in data set [7], the “exposure to the BCRP substrate sulfasalazine” value is listed as “markedly increase”. Further, in the data set with CYP2C8, the “inhibition of CYP2C8” value is listed as “weak inhibitor”. Moreover, the “inhibition of CYP2D6” value in the data set with CYP2D6 is reported as “weak inhibitor”. Besides, the “inhibition of CYP1A2” value in the data set on CYP1A2 is on record as “does not inhibit”. In the data set on CYP2C9, the “inhibition of CYP2C9” value is “does not inhibit”. The “inhibition of CYP2C19” value in the data set with CYP2C19 is on record as “does not inhibit”. Also, the “inhibition of CYP3A4” value in the data set on CYP3A4 is listed as “does not inhibit”. In addition, the “effect on the pharmacokinetics of rosiglitazone” value in data set [8] is reported as “no effect”. In [9], the “increase of the AUC of desipramine” value was 12%. Further, in data set [10], the “all-cause and cardiovascular mortality compared with allopurinol” value is “increases”.
Consider `O=c1[nH]c(=O)c2c[nH]nc2[nH]1` [oxypurinol], for which, in the data set on BCRP [4], the “inhibition of BCRP” value was “have not inhibited”.
On to `O=C(O)C[C@H](O)C[C@H](O)/C=C/c1c(C2CC2)nc2ccccc2c1-c1ccc(F)cc1` [pitavastatin], for which the “effect of the ABCG2 c.421C>A variant on AUC” value (shortened to “effect … on AUC”) in [11] was “no significant effect”.
For the compound `CC[C@H](C)C(=O)O[C@H]1C[C@H](O)C=C2C=C[C@H](C)[C@H](CC[C@@H](O)C[C@@H](O)CC(=O)O)[C@H]21` [pravastatin], the “effect … on AUC” value in [11] is reported as “no significant effect”.
`CC(C)c1nc(N(C)S(C)(=O)=O)nc(-c2ccc(F)cc2)c1/C=C/[C@@H](O)C[C@@H](O)CC(=O)O` [rosuvastatin]: the CL renal in [2] (human, plasma and urine, oral, Clrenal, allopurinol phase (300 mg once daily days 1–7), geometric mean (geometric CV)) amounted to 225 mL/min. In addition, in [2] (setting [14]), the AUC(0-inf) – broadly, the area under the concentration-time curve extrapolated to infinity – was 53.5 ng·h/mL and the half-life was 10.9 h. In addition, in data set [2] (setting [15]), the total exposure AUC(0-inf) was 82.5 ng·h/mL and the half-life is 6.3 h. Besides, the “Ae, amount excreted into urine” value in data set [2] (allopurinol phase (300 mg once daily days 1–7), geometric mean (geometric CV)) was 0.45 (101%) mg. Also, in [2] (geometric mean ratio), the “AUC0–∞, allopurinol phase to placebo phase ratio (90% CI)” value is reported as 1.26 (0.98–1.61); P = 0.13; the “AUC0–∞, febuxostat phase to placebo phase ratio (90% CI)” value is recorded as 1.93 (1.51–2.48); P = 0.001; the “Ae, allopurinol phase to placebo phase ratio (90% CI)” value is recorded as 0.99 (0.69–1.43); P = 0.98; the “Ae, febuxostat phase to placebo phase ratio (90% CI)” value was 1.76 (1.16–2.66); P = 0.03. Moreover, in data set [2] (geometric mean ratio), the “Clrenal, allopurinol phase to placebo phase ratio (90% CI)” value is recorded as 0.86 (0.65–1.14); P = 0.36; the “Clrenal, febuxostat phase to placebo phase ratio (90% CI)” value is recorded as 0.82 (0.58–1.14); P = 0.30; the “Cmax, allopurinol phase to placebo phase ratio (90% CI)” value is on record as 1.22 (1.02–1.47); P = 0.08; the “Cmax, febuxostat phase to placebo phase ratio (90% CI)” value is 2.13 (1.76–2.58); P = 5 × 10^−5. In data set [2] (geometric mean ratio), the “t ½, allopurinol phase to placebo phase ratio (90% CI)” value is 1.72 (1.03–2.85); P = 0.08 and the “t ½, febuxostat phase to placebo phase ratio (90% CI)” value is 1.00 (0.75–1.33); P = 0.99. In data set [12], the “increase of AUC by homozygosity for SLCO1B1 c.521T>C” value was 1.7–2.2 fold and the “increase of Cmax by homozygosity for SLCO1B1 c.521T>C” value was 1.8–2.7 fold.
As to `CCC(C)(C)C(=O)O[C@H]1C[C@@H](C)C=C2C=C[C@H](C)[C@H](CC[C@@H](O)C[C@@H](O)CC(=O)O)[C@H]21` [simvastatin acid], the “effect … on AUC” value in [11] was “no significant effect”.
